# Data reported in US20020137929A1, “1 - (3-heterocyclylphenyl) isothiourea, -isourea, -guanidine and -amidine herbicidal agents” (Intellectual Property Department, BASF Aktiengesellschaft, priority 1998, published 2002).
# Key:
# ABUTH (Velvetleaf) [1] = assay: Postemergence herbicidal evaluation; format: in vivo, Abutilon theophrasti; details: postemergence
# How it was run: (§1)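 ~2-wk seedlings; postemergence spray, 40 psi; vehicle 1:1 acetone:water + 0.5% Tween 20; rate ≈0.0156–0.500 kg/ha; greenhouse hold; scored 4–5 wk after treatment, 0–9 scale vs control; repeat tests averaged.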
# [2] = tested on: TRZAWR (Wheat, Winter, cv Riband); assay: Preemergence herbicidal evaluation; format: in vivo, Triticum aestivum; details: rated 4-5 weeks after treatment
# How it was run: (§2)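 In this greenhouse assay, monocot and dicot seeds are planted in soil and treated prior to emergence with an aqueous acetone spray (about 0.0156-0.500 kg/ha). Plants are assessed visually against control on a 0-9 scale after 4-5 weeks.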
# [3] = tested on: CHEAL (Lambsquarters, Common); assay: Preemergence herbicidal evaluation; format: in vivo, Chenopodium album; details: rated 4-5 weeks after treatment
# How it was run: as §2
# [4] = tested on: IPOHE (Morningglory, Ivyleaf); assay: Postemergence herbicidal evaluation; format: in vivo, Ipomoea hederacea; details: postemergence
# How it was run: as §1
# ABUTH (Velvetleaf) [5] = assay: Preemergence herbicidal evaluation; format: in vivo, Abutilon theophrasti; details: rated 4-5 weeks after treatment
# How it was run: as §2
# [6] = tested on: CHEAL (Lambsquarters, Common); assay: Postemergence herbicidal evaluation; format: in vivo, Chenopodium album; details: postemergence
# How it was run: as §1
# CYPIR (Rice Flatsedge) = assay: Postemergence weed control under flooded paddy conditions; format: in vivo, Cyperus iria; details: postemergence weeds, rated 3 to 4 weeks after treatment
# How it was run: (§3)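 Weeds 3 to 5 cm tall and rice seedlings at the 1.5 to 2.5 leaf stage were flooded, with water held 1.5 to 3 cm above the soil. Compounds in 50/50 v/v aqueous/acetone went into the flood water at about 0.0313 to 0.500 kg/ha. Visual 0-9 ratings versus control were made 3 to 4 weeks later.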
# ECHCG (Barnyardgrass) [7] = assay: Postemergence herbicidal evaluation; format: in vivo, Echinochloa crus-galli; details: postemergence
# How it was run: as §1
# CYPSE (Flatsedge) = assay: Postemergence weed control under flooded paddy conditions; format: in vivo, Cyperus serotinus; details: postemergence weeds, rated 3 to 4 weeks after treatment
# How it was run: as §3
# [8] = tested on: IPOHE (Morningglory, Ivyleaf); assay: Preemergence herbicidal evaluation; format: in vivo, Ipomoea hederacea; details: rated 4-5 weeks after treatment
# How it was run: as §2
# ZEAMX (Corn, Field) [9] = assay: Preemergence herbicidal evaluation; format: in vivo, Zea mays; details: rated 4-5 weeks after treatment
# How it was run: as §2
# ZEAMX (Corn, Field) [10] = assay: Postemergence herbicidal evaluation; format: in vivo, Zea mays; details: postemergence
# How it was run: as §1
# SETVI (Foxtail, Green) = assay: Postemergence herbicidal evaluation; format: in vivo, Setaria viridis; details: postemergence
# How it was run: as §1
# ECHCG (Barnyardgrass) [11] = assay: Preemergence herbicidal evaluation; format: in vivo, Echinochloa crus-galli; details: rated 4-5 weeks after treatment
# How it was run: as §2
# CASOB (Sicklepod) = assay: Preemergence herbicidal evaluation; format: in vivo, Cassia obtusifolia; details: rated 4-5 weeks after treatment
# How it was run: as §2
# [12] = tested on: GLXMAW (Soybean, Williams); assay: Preemergence herbicidal evaluation; format: in vivo, Glycine max, (L.) Merr. cv Williams; details: rated 4-5 weeks after treatment
# How it was run: as §2
# ORYSAT (Rice, Tebonnet) = assay: Postemergence herbicidal evaluation; format: in vivo, Oryza sativa, (L.) Tebonnet; details: postemergence
# How it was run: as §1
smiles,measurement,setting,value
"CCOC(=O)[C@H](Cc1ccccc1)N1C(=O)CSC1=Nc1cc(-n2c(=O)cc(C(F)(F)F)n(C)c2=O)c(F)cc1Cl [Compound 80, Ethyl α-benzyl-2-{{2-chloro-5-[3,6-dihydro-3-methyl-2,6-dioxo-4-(trifluoromethyl)-1(2H)-pyrimidinyl]-4-fluorophenyl}imino}-4-oxo-3-thiazolidineacetate, L-]",ABUTH herbicidal rating,ABUTH (Velvetleaf) [1]; rate 0.0158 kg/ha,9.0
same,ABUTH herbicidal rating,ABUTH (Velvetleaf) [1]; rate 0.0315 kg/ha,9.0
same,ABUTH herbicidal rating,ABUTH (Velvetleaf) [1]; rate 0.0630 kg/ha,9.0
same,Preemergence herbicidal rating TRZAWR,[2]; rate 0.0156 kg/ha,0.0
same,Preemergence herbicidal rating TRZAWR,[2]; rate 0.0313 kg/ha,0.0
same,Preemergence herbicidal rating TRZAWR,[2]; rate 0.0625 kg/ha,0.0
same,Preemergence herbicidal rating TRZAWR,[2]; rate 0.1250 kg/ha,2.0
same,Preemergence herbicidal rating TRZAWR,[2]; rate 0.2500 kg/ha,1.0
same,Preemergence herbicidal rating CHEAL,[3]; rate 0.0156 kg/ha,7.0
same,Preemergence herbicidal rating CHEAL,[3]; rate 0.0313 kg/ha,9.0
same,Preemergence herbicidal rating CHEAL,[3]; rate 0.0625 kg/ha,9.0
same,Preemergence herbicidal rating CHEAL,[3]; rate 0.1250 kg/ha,9.0
same,Preemergence herbicidal rating CHEAL,[3]; rate 0.2500 kg/ha,9.0
same,IPOHE herbicidal rating,[4]; rate 0.0158 kg/ha,9.0
same,IPOHE herbicidal rating,[4]; rate 0.0315 kg/ha,9.0
same,IPOHE herbicidal rating,[4]; rate 0.0630 kg/ha,9.0
same,Preemergence herbicidal rating ABUTH,ABUTH (Velvetleaf) [5]; rate 0.0156 kg/ha,0.0
same,Preemergence herbicidal rating ABUTH,ABUTH (Velvetleaf) [5]; rate 0.0313 kg/ha,1.0
same,Preemergence herbicidal rating ABUTH,ABUTH (Velvetleaf) [5]; rate 0.0625 kg/ha,9.0
same,Preemergence herbicidal rating ABUTH,ABUTH (Velvetleaf) [5]; rate 0.1250 kg/ha,9.0
same,Preemergence herbicidal rating ABUTH,ABUTH (Velvetleaf) [5]; rate 0.2500 kg/ha,9.0
same,CHEAL herbicidal rating,[6]; rate 0.0158 kg/ha,9.0
same,CHEAL herbicidal rating,[6]; rate 0.0315 kg/ha,9.0
same,CHEAL herbicidal rating,[6]; rate 0.0630 kg/ha,9.0
same,Herbicidal rating CYPIR,CYPIR (Rice Flatsedge); Rate 0.0313 kg/ha,5.0
same,Herbicidal rating CYPIR,CYPIR (Rice Flatsedge); Rate 0.0625 kg/ha,7.0
same,Herbicidal rating CYPIR,CYPIR (Rice Flatsedge); Rate 0.1250 kg/ha,7.0
same,Herbicidal rating CYPIR,CYPIR (Rice Flatsedge); Rate 0.2500 kg/ha,7.0
same,ECHCG herbicidal rating,ECHCG (Barnyardgrass) [7]; rate 0.0158 kg/ha,1.0
same,ECHCG herbicidal rating,ECHCG (Barnyardgrass) [7]; rate 0.0315 kg/ha,2.0
same,ECHCG herbicidal rating,ECHCG (Barnyardgrass) [7]; rate 0.0630 kg/ha,3.0
same,Herbicidal rating CYPSE,CYPSE (Flatsedge); Rate 0.0313 kg/ha,3.0
same,Herbicidal rating CYPSE,CYPSE (Flatsedge); Rate 0.0625 kg/ha,3.0
same,Herbicidal rating CYPSE,CYPSE (Flatsedge); Rate 0.1250 kg/ha,3.0
same,Herbicidal rating CYPSE,CYPSE (Flatsedge); Rate 0.2500 kg/ha,4.0
same,Preemergence herbicidal rating IPOHE,[8]; rate 0.0156 kg/ha,0.0
same,Preemergence herbicidal rating IPOHE,[8]; rate 0.0313 kg/ha,0.0
same,Preemergence herbicidal rating IPOHE,[8]; rate 0.0625 kg/ha,0.0
same,Preemergence herbicidal rating IPOHE,[8]; rate 0.1250 kg/ha,4.0
same,Preemergence herbicidal rating IPOHE,[8]; rate 0.2500 kg/ha,9.0
same,Preemergence herbicidal rating ZEAMX,"ZEAMX (Corn, Field) [9]; rate 0.0156 kg/ha",0.0
same,Preemergence herbicidal rating ZEAMX,"ZEAMX (Corn, Field) [9]; rate 0.0313 kg/ha",0.0
same,Preemergence herbicidal rating ZEAMX,"ZEAMX (Corn, Field) [9]; rate 0.0625 kg/ha",1.0
same,Preemergence herbicidal rating ZEAMX,"ZEAMX (Corn, Field) [9]; rate 0.1250 kg/ha",3.0
same,Preemergence herbicidal rating ZEAMX,"ZEAMX (Corn, Field) [9]; rate 0.2500 kg/ha",3.0
same,ZEAMX herbicidal rating,"ZEAMX (Corn, Field) [10]; rate 0.0158 kg/ha",5.0
same,ZEAMX herbicidal rating,"ZEAMX (Corn, Field) [10]; rate 0.0315 kg/ha",5.0
same,ZEAMX herbicidal rating,"ZEAMX (Corn, Field) [10]; rate 0.0630 kg/ha",5.5
same,SETVI herbicidal rating,"SETVI (Foxtail, Green); rate 0.0158 kg/ha",1.0
same,SETVI herbicidal rating,"SETVI (Foxtail, Green); rate 0.0315 kg/ha",2.0
same,SETVI herbicidal rating,"SETVI (Foxtail, Green); rate 0.0630 kg/ha",4.0
same,Preemergence herbicidal rating ECHCG,ECHCG (Barnyardgrass) [11]; rate 0.0156 kg/ha,0.0
same,Preemergence herbicidal rating ECHCG,ECHCG (Barnyardgrass) [11]; rate 0.0313 kg/ha,0.0
same,Preemergence herbicidal rating ECHCG,ECHCG (Barnyardgrass) [11]; rate 0.0625 kg/ha,0.0
same,Preemergence herbicidal rating ECHCG,ECHCG (Barnyardgrass) [11]; rate 0.1250 kg/ha,1.0
same,Preemergence herbicidal rating ECHCG,ECHCG (Barnyardgrass) [11]; rate 0.2500 kg/ha,0.0
same,Preemergence herbicidal rating CASOB,CASOB (Sicklepod); rate 0.0156 kg/ha,1.0
same,Preemergence herbicidal rating CASOB,CASOB (Sicklepod); rate 0.0313 kg/ha,0.0
same,Preemergence herbicidal rating CASOB,CASOB (Sicklepod); rate 0.0625 kg/ha,0.0
same,Preemergence herbicidal rating CASOB,CASOB (Sicklepod); rate 0.1250 kg/ha,9.0
same,Preemergence herbicidal rating CASOB,CASOB (Sicklepod); rate 0.2500 kg/ha,9.0
same,Preemergence herbicidal rating GLXMAW,[12]; rate 0.0156 kg/ha,0.0
same,Preemergence herbicidal rating GLXMAW,[12]; rate 0.0313 kg/ha,0.0
same,Preemergence herbicidal rating GLXMAW,[12]; rate 0.0625 kg/ha,1.0
same,Preemergence herbicidal rating GLXMAW,[12]; rate 0.1250 kg/ha,1.0
same,Preemergence herbicidal rating GLXMAW,[12]; rate 0.2500 kg/ha,1.0
same,ORYSAT herbicidal rating,"ORYSAT (Rice, Tebonnet); rate 0.0158 kg/ha",3.5
same,ORYSAT herbicidal rating,"ORYSAT (Rice, Tebonnet); rate 0.0315 kg/ha",3.5
same,ORYSAT herbicidal rating,"ORYSAT (Rice, Tebonnet); rate 0.0630 kg/ha",4.0
